# From patent US9567347B2, “Use of small molecule inhibitors targeting the interaction between RAC GTPase and p67(phox)” (CHILDREN'S HOSPITAL MEDICAL CENTER, priority 2012, dated 2017)
# Legend:
# [1] = target: T1, p67^phox recombinant protein (1-200) (Homo sapiens, UniProt P19878); experiment: microscale thermophoresis binding to p67phox
# T1 construct: using the pET30-HIS p67(1-212) plasmid; His; made in house; host or cells: E. coli BL21(DE3)
# T1 sequence (P19878 1-212): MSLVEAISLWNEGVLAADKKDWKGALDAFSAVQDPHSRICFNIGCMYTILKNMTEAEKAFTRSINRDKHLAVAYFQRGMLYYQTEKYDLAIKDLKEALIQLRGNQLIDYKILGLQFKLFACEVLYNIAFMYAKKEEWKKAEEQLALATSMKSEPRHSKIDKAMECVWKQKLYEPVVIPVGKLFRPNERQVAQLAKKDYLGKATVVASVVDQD
# Procedure: The p67^phox protein was expressed in BL21(DE3) bacteria (Stratagene) using the pET30-HIS p67(1-212) plasmid. Protein was purified using the QIAexpress Ni-NTA kit (Qiagen) or the GST Bind Resin Chromatography Kit (Novagen) for RacV12 and RacWT proteins. Mutagenesis was carried out using the Quick Change Lightening Site Directed Mutagenesis Kit (Stratagene).
# Proteins were labeled for microscale thermophoresis using the Monolith NT Protein Labeling Kit Red (Nano Temper Technologies) as recommended by the manufacturer. Binding reactions were carried out using the Monolith NT. 115 (Nano Temper Technologies). Binding data was analyzed using Graphpad Prizm to estimate Kd values. The arbitrary fluorescence value from the thermophoresis plots for the smallest compound titration was subtracted from every other data point (Delta depletion) prior to normalization to a Vmax of 100. In thermophoresis plots where there was no binding, a curve could not be fit and therefore no Vmax could be assigned. In these instances the highest delta depletion value was set to 100 and all data were normalized accordingly.
# To test the ability of compounds identified by preliminary screening to bind to the p67^phox protein in the N-terminal 200 amino acid region involved in Rac1-GTP interaction, microscale thermophoresis was employed. This technology probes for fluorescent changes in the hydration shell of molecules in order to measure protein-protein or protein small molecule interactions with high sensitivity in near-native conditions.
# [2] = system: undifferentiated HL-60 cells; experiment: apoptosis analysis by FACS (Annexin V / 7-AAD); format: cell-based, human; conditions: 20 or 100 μM
# Procedure: Cells (5×10^5) were harvested and processed for Annexin V/7AAD staining according to manufacturer's protocol (Becton Dickinson). Flow cytometry data were acquired on a FACS Canto bench-top flow cytometer (Becton Dickinson) and the cell cycle distributions were determined by […] using Flo-Jo software (Bosco et al (2010) Blood 115, 3320-3328, hereby incorporated by reference in its entirety). For ROS production assay, primary murine neutrophils or dHL60 cells were incubated with compound for 2 hours prior to addition of H2-DCFDA according to manufacturer's instructions (Molecular Probes). Cells were then stimulated with 10 μM fMLP (Sigma), 1 mM CaCl2, and 1.5 mM MgCl2 for 15 minutes prior to wash and FACS analysis for mean fluorescence intensity. Non-fMLP stimulated control values were subtracted from all samples before normalization to fMLP-stimulated, vehicle control treated sample in order to display percent ROS inhibition.
# In order to determine potency and cytotoxicity of Phox-I1 and Phox-I2, the levels of apoptosis were assessed in undifferentiated HL-60 cells treated with 20 or 100 μM Phox-I1, Phox-I2, or NSC23766 by FACS analysis for Annexin V (FIG. 4A).
# dHL-60 cells [3] = experiment: antioxidant (ROS scavenger) test in dHL-60 cells pre-stimulated with fMLP; format: cell-based, human; conditions: fMLP 30 min prior to treatment
# Procedure: (A) Apoptosis analysis by FACS of HL-60 cells treated with compound or vehicle control for 2 hours prior to 7-AAD and Annexin V staining. (B) HL-60 cells from A were harvested and lysates were immunoblotted for levels of pPAK, and actin was used as a control for loading. (C) F-actin reorganization in freshly isolated fMLP-stimulated primary murine neutrophils was analyzed. […] Cells were exposed to a 10 μM dose of Phox-I1, Phox-I2, and Analog 13, and 200 nM nocodazole. (D) The effect of Phox-I on NOX4 mediated ROS production was tested in primary murine neutrophils transfected with a NOX4 expressing plasmid. 10 μM Phox-I1 was applied to the cells for 30 min prior to ROS assay by luminol chemiluminescence in the presence of HRP. The fMLP-stimulated ROS activity in the presence or absence of 10 uM Phox-I1 was measured in parallel. (E) The antioxidant abilities of these lead compounds were tested by prestimulating dHL-60 cells with fMLP for 30 minutes prior to treatment with Phox-I1 or Phox-I2. Levels of superoxide were analyzed by DCFDA assay and FACS. NAC, apocyanin, DPI, and NSC23766 treated cells served as controls. […] (G) For stability assay, DMSO-differentiated HL-60 cells were treated with 20 μM dose of compound for the indicated time period prior to fMLP stimulation and DCFDA ROS production assay by FACS analysis.
# Phox-I1 was then applied to primary murine neutrophils expressing the constitutively active NOX4. […] To further rule out that Phox-I1 and Phox-I2 may simply act as scavengers of ROS, dHL-60 cells were pre-stimulated with fMLP for 30 min prior to treatment with Phox-I1 or Phox-I2.
# dHL-60 cells [4] = experiment: stability in culture over time, DCFDA ROS assay; format: cell-based, human; conditions: 20 μM, 6 hr treatment window
# Procedure: (A) Apoptosis analysis by FACS of HL-60 cells treated with compound or vehicle control for 2 hours prior to 7-AAD and Annexin V staining. (B) HL-60 cells from A were harvested and lysates were immunoblotted for levels of pPAK, and actin was used as a control for loading. (C) F-actin reorganization in freshly isolated fMLP-stimulated primary murine neutrophils was analyzed. […] Cells were exposed to a 10 μM dose of Phox-I1, Phox-I2, and Analog 13, and 200 nM nocodazole. (D) The effect of Phox-I on NOX4 mediated ROS production was tested in primary murine neutrophils transfected with a NOX4 expressing plasmid. 10 μM Phox-I1 was applied to the cells for 30 min prior to ROS assay by luminol chemiluminescence in the presence of HRP. The fMLP-stimulated ROS activity in the presence or absence of 10 uM Phox-I1 was measured in parallel. (E) The antioxidant abilities of these lead compounds were tested by prestimulating dHL-60 cells with fMLP for 30 minutes prior to treatment with Phox-I1 or Phox-I2. Levels of superoxide were analyzed by DCFDA assay and FACS. NAC, apocyanin, DPI, and NSC23766 treated cells served as controls. […]
Kd [1] [nM],binding to p67^phox [1],SMILES,cell apoptosis (Annexin V) [2],levels of superoxide already produced (dHL-60 cells [3]),efficacy of ROS inhibition over time in culture (dHL-60 cells [4])
~100,–,COc1ccc2c(c1)C1C=C(c3ccccc3)NN1C(c1cccc([N+](=O)[O-])c1)O2 (stereo not drawn) [Phox-I1],no detectable effect on cell apoptosis,do not affect,no significant change in efficacy
~150,high affinity,O=[N+]([O-])c1cccc(C2Nc3ccc([N+](=O)[O-])cc3C3C=CCC32)c1 (stereo not drawn) [Phox-I2],no detectable effect on cell apoptosis,do not affect,retained some efficacies
